This is an account of results in article PMC13198257, “An aerosolized dual-action autotaxin inhibitor-PPARγ agonist for the treatment of pulmonary fibrosis” (Cell Reports Medicine, 2026).

Series [1] in a line: Cytotoxicity in HepG2 hepatocytes. Type of series: cell-based. The note with it: human, HepG2 cells.
Another series has as its target T1, PPARγ LBD (Homo sapiens, UniProt P37231).
T1 construct: using recombinant PPARγ LBD protein dissolved in a buffer; made in house
T1 sequence (P37231 238-503 limits assumed): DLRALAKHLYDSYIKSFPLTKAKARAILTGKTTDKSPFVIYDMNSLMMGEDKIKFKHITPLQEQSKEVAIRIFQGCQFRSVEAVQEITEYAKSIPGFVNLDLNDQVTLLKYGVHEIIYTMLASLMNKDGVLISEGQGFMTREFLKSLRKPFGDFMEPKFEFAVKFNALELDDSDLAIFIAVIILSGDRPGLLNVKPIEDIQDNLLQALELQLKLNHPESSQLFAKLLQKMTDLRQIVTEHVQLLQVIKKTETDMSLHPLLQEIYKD
Put plainly: Isothermal titration calorimetry (ITC). The format is binding. The note with it: for Kd: PPARγ LBD, 25°C. How it is done:
ITC was performed[49] on a TA Instruments Affinity ITC (TA Instruments, New Castle, Delaware, USA), using recombinant PPARγ LBD protein dissolved in a buffer containing 25 mM HEPES, 150 mM KF, 5 mM DTT, 10% w/v glycerol and 1% DMSO at pH 7.5. […] The titration was performed at 25°C with a stirring rate of 75 rpm. An interval of 300 s was maintained between injections. ITC raw data were analyzed with the NanoAnalyze software package (version 3.7.5). An independent binding model was used to fit the reaction enthalpy (ΔH), binding affinity constant (KD), and stoichiometry (n). Free energy change (ΔG) was calculated with the equation ΔG = −RT ln K and the entropy (ΔS) was calculated with the equation ΔG = ΔH−TΔS.
For orientation: In ITC the heat of successive injections is recorded.

Series [2] has as its target T2, ATX (Homo sapiens, UniProt Q13822).
T2 construct: purchased Sino Biological 11308-H07H
Put plainly: Mode of ATX inhibition, Lineweaver-Burk plots (various LPC concentrations). Type of series: biochemical. On the procedure: To determine the mode of inhibition of ATX, various concentrations of TGZ, compound 5 and EL244 were tested against various LPC concentrations. Specifically, TGZ was tested against 6.25, 12.5, 25, 50 and 100 μM LPC, compound 5 was tested against 3.125, 6.25, 12.5, 25, 50 and 100 μM LPC, while EL244 was tested against 25, 50, 100 and 150 μM LPC. Lineweaver–Burk graphs depicting the reciprocal of velocity (1/V) against the reciprocal of substrate concentration (1/S) were plotted with GraphPad Software.

Series [3] can be described thus: AMP membrane permeability. The following applies: 10 μΜ. The format is in vitro ADME.
Series [4] deals with T2, ATX. Put plainly: Amplex Red assay: ATX inhibitory activity in vitro. Type of series: biochemical. The following applies: in vitro; for IC50: Amplex Red assay. How it is done:
ATX inhibitory activity in vitro of examined compounds was assessed with the Amplex Red assay,[32]^,[35]^,[36] as recently published in detail.[37] The assay was done in Amplex Red Assay buffer (Tris 50 mM, CaCl2 5 mM, pH 8). Briefly, 50 μL of increasing concentrations of each compound were placed in separate wells of a black 96-well plate. […] 50 μL of the LPC-containing assay buffer (200 μM) were added to the wells and incubated for 30 min at 37°C to allow the enzyme to initially interact with its substrate. 50 μL of the detection mix (Amplex Red 200 μM, choline oxidase 0.4 U/mL, horseradish peroxidase 4 U/mL) were added to the plate wells. Fluorescence was measured in a Tecan M200 Fluorimeter using excitation at 530 nm and reading at 590 nm, every 5 min for 30 min. The velocity of the reaction and the remaining ATX activity were calculated at the linear phase of the reaction. Dose-response inhibition graphs were plotted with GraphPad Software.

Each structure is given as a SMILES string.

What is called CC50 is the concentration giving 50% cytotoxicity. Lower therefore signals greater toxicity to the cells. One may read the Kd as the constant that tells how readily two partners part at equilibrium. Low values mean a tighter complex, high ones a looser complex. The term IC50 denotes the concentration that gives 50% inhibition.

Compound `O=C1NC(=O)C(Cc2ccc(OCCN3CCN(C(=O)OCc4cc(Cl)cc(Cl)c4)CC3)cc2)S1` (stereo not drawn) [Compound 5, 3,5-dichlorobenzyl4-(2-(4-((2,4-dioxothiazolidin-5-yl)methyl)phenoxy)ethyl)piperazine-1-carboxylate] registered a CC50 in series [1] of 90300 nM. Further, at PPARγ LBD, the “Thermodynamics of binding to PPARγ-LBD” value is recorded as “entropy-driven” and the equilibrium dissociation constant (Kd) was 600 nM. Further, the “Mode of ATX inhibition” value at ATX [2] is reported as “non-competitive”. Moreover, the AMP in series [3] was 3.7e-06 cm/s. Besides, the midpoint of inhibition against ATX [4], the IC50, lay at 290 nM.

As for `O=C1NC(=O)C(Cc2ccc(OCCC3CCN(C(=O)OCc4cc(Cl)cc(Cl)c4)CC3)cc2)S1` (stereo not drawn) [EL244, 3,5-dichlorobenzyl 4-(2-(4-((2,4-dioxothiazolidin-5-yl)methyl)phenoxy)ethyl)piperidine-1-carboxylate], half-maximal cytotoxicity in series [1] (CC50) was put at 81200 nM. In addition, at PPARγ LBD, the “Thermodynamics of binding to PPARγ-LBD” value is listed as “enthalpy-driven” and the Kd turned out to be 1300 nM. The “Mode of ATX inhibition” value on ATX [2] was “competitive”. In addition, in series [3], the AMP was 8e-07 cm/s. In addition, at ATX [4], the IC50 came to 50 nM; the “ATX inhibitory effect, fold better than 5” value is listed as 5 fold; the “ATX inhibitory effect, fold better than GLPG1690” value stood at 3 fold; the “ATX inhibitory effect, fold better than TGZ” value stood at 10 fold.
